The source of these data is patent publication US8846947B2, “Benzimidazoles and related analogs as sirtuin modulators” (GlaxoSmithKline LLC, priority 2008, dated 2014).

The structures appear in SMILES notation.

For the test, the target named is T1, SIRT1 (Homo sapiens, UniProt Q96EB6).
T1 sequence (Q96EB6 1-747): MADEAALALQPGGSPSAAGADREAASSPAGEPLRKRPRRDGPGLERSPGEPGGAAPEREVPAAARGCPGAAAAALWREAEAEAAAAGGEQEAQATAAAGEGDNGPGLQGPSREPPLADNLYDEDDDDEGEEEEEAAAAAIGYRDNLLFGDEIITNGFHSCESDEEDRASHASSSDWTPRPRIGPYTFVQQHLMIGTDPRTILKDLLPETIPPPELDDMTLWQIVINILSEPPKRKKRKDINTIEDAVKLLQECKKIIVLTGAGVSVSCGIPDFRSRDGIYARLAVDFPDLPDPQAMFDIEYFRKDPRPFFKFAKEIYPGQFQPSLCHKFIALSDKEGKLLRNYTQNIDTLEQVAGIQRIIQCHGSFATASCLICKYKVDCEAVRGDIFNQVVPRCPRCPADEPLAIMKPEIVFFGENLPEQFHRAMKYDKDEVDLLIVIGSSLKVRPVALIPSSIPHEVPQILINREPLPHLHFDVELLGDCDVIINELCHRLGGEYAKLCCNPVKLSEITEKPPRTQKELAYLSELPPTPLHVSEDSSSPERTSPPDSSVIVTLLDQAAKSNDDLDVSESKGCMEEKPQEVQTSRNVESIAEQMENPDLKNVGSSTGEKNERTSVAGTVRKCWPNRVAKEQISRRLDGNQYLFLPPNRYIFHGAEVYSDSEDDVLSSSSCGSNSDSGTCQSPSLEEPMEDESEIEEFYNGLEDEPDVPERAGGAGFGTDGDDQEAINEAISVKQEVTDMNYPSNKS
Put plainly: Mass spectrometry based SIRT1 deacetylase activation assay (acetylated p53-derived peptide substrate). The test is classed as biochemical. The note with it: 0.5 μM peptide substrate, 120 μM βNAD+, 10 nM SIRT1, 25 min at 25° C.; for EC1.5: read-out: EC1.5.

On to `Cc1cc(NC(=O)c2cccc3[nH]c(-c4cccc(N5CCOCC5)c4)nc23)no1` [Compound 469], for which the “Fold Act. (percent maximum fold activation)” value is “A (Fold activation >200%)” and the EC1.5 was 1000 to 25000 nM.

With `O=C(Nc1cccnn1)c1cccc2[nH]c(-c3cccc(N4CCOCC4)c3)nc12` [Compound 470], the “Fold Act. (percent maximum fold activation)” value was “A (Fold activation >200%)” and the EC1.5 lay within 1000 to 25000 nM.

For the compound `O=C(NCc1ccccn1)c1cccc2[nH]c(-c3cccc(N4CCOCC4)c3)nc12` [Compound 471], the “Fold Act. (percent maximum fold activation)” value is reported as “A (Fold activation >200%)” and the EC1.5 is 1000 to 25000 nM.

Regarding `O=C(Nc1ccccn1)c1cccc2[nH]c(-c3ccccc3OCCN3CCCC3)nc12` [Compound 472], the “Fold Act. (percent maximum fold activation)” value was “B (Fold Activation <200%)” and the EC1.5 lay within 1000 to 25000 nM.

Regarding `CN1CCOc2cc(-c3nc4c(C(=O)Nc5cnccn5)cccc4[nH]3)cnc21` [Compound 473], the “Fold Act. (percent maximum fold activation)” value is “A (Fold activation >200%)” and the EC1.5 was 1000 to 25000 nM.

On to `O=C(Nc1ccccn1)c1cccc2[nH]c(-c3ccccc3OCCN3CCOCC3)nc12` [Compound 474], for which the “Fold Act. (percent maximum fold activation)” value was “A (Fold activation >200%)” and the EC1.5 was in the range of 1000 to 25000 nM.

Turning to `Cc1cnc(NC(=O)c2cccc3[nH]c(-c4ccccc4OCCN4CCOCC4)nc23)s1` [Compound 475], the “Fold Act. (percent maximum fold activation)” value is recorded as “A (Fold activation >200%)” and the EC1.5 lay in the range of 1000 to 25000 nM.

On to `Cc1nc(NC(=O)c2cccc3[nH]c(-c4ccccc4OCCN4CCOCC4)nc23)sc1C` [Compound 476], for which the “Fold Act. (percent maximum fold activation)” value is “A (Fold activation >200%)” and the EC1.5 lay in the range of 1000 to 25000 nM.

In the case of `Cn1cc(-c2nc3c(C(=O)Nc4nccs4)cccc3[nH]2)c(C(F)(F)F)n1` [Compound 477], the “Fold Act. (percent maximum fold activation)” value is recorded as “A (Fold activation >200%)” and the EC1.5 is less than 1000 nM.

As to `O=C(Nc1cccc(OCC(O)CO)c1)c1cccc2[nH]c(-c3ccccc3C(F)(F)F)nc12` (stereo not shown) [Compound 478], the “Fold Act. (percent maximum fold activation)” value was “A (Fold activation >200%)” and the EC1.5 is less than 1000 nM.

Take `O=C(Nc1cccc(OCC(O)CO)c1)c1cccc2[nH]c(-c3ccc(Cl)cc3C(F)(F)F)nc12` (stereo not shown) [Compound 479]: the “Fold Act. (percent maximum fold activation)” value is listed as “A (Fold activation >200%)” and the EC1.5 is less than 1000 nM.

Take `O=C(Nc1cccc(OCC(O)CO)c1)c1cccc2[nH]c(-c3cc(F)ccc3C(F)(F)F)nc12` (stereo not shown) [Compound 480]: the “Fold Act. (percent maximum fold activation)” value is “A (Fold activation >200%)” and the EC1.5 was less than 1000 nM.

For the compound `Cc1cc(NC(=O)c2cccc3[nH]c(-c4ccccc4C(F)(F)F)nc23)no1` [Compound 481], the “Fold Act. (percent maximum fold activation)” value is recorded as “A (Fold activation >200%)” and the EC1.5 was less than 1000 nM.

Take `O=C(Nc1nccs1)c1cccc2[nH]c(-c3ccccc3OCCN3CCCC3)nc12` [Compound 482, 2-(2-(2-(pyrrolidin-1-yl)ethoxy)phenyl)-N-(thiazol-2-yl)-1H-benzo[d]imidazole-4-carboxamide]: the “Fold Act. (percent maximum fold activation)” value is reported as “A (Fold activation >200%)” and the EC1.5 is 1000 to 25000 nM.

With `O=C(Nc1nccs1)c1cccc2[nH]c(-c3ccccc3OCCN3CCNCC3)nc12` [Compound 483], the “Fold Act. (percent maximum fold activation)” value is reported as “A (Fold activation >200%)” and the EC1.5 was 1000 to 25000 nM.

`O=C(Nc1ccccn1)c1cccc2[nH]c(-c3ccccc3OCCN3CCNCC3)nc12` [Compound 484]: the “Fold Act. (percent maximum fold activation)” value was “A (Fold activation >200%)” and the EC1.5 was 1000 to 25000 nM.

For the compound `CC(C)N1CCN(CCOc2ccccc2-c2nc3c(C(=O)Nc4nccs4)cccc3[nH]2)CC1` [Compound 485], the “Fold Act. (percent maximum fold activation)” value is “A (Fold activation >200%)” and the EC1.5 is 1000 to 25000 nM.

As for `CC(C)N1CCN(CCOc2ccccc2-c2nc3c(C(=O)Nc4ccccn4)cccc3[nH]2)CC1` [Compound 486], the “Fold Act. (percent maximum fold activation)” value is “A (Fold activation >200%)” and the EC1.5 was in the range of 1000 to 25000 nM.

Take `Cc1cc(NC(=O)c2cccc3[nH]c(-c4ccccc4OCCN4CCOCC4)nc23)n(C)n1` [Compound 487]: the “Fold Act. (percent maximum fold activation)” value is listed as “A (Fold activation >200%)” and the EC1.5 was in the range of 1000 to 25000 nM.

`O=C(Nc1cccnn1)c1cccc2[nH]c(-c3ccccc3OCCN3CCOCC3)nc12` [Compound 488]: the “Fold Act. (percent maximum fold activation)” value is given as “B (Fold Activation <200%)” and the EC1.5 is 1000 to 25000 nM.

Consider `O=C(Nc1cnccn1)c1cccc2[nH]c(-c3ccccc3OCCN3CCOCC3)nc12` [Compound 489], for which the “Fold Act. (percent maximum fold activation)” value is reported as “B (Fold Activation <200%)” and the EC1.5 was in the range of 1000 to 25000 nM.

Take `O=C(Nc1cccc(CN2CCCC2)c1)c1cccc2[nH]c(-c3ccc(Cl)cc3C(F)(F)F)nc12` [Compound 490, 2-(4-chloro-2-(trifluoromethyl)phenyl)-N-(3-(pyrrolidin-1-ylmethyl)phenyl)-1H-benzo[d]imidazole-4-carboxamide]: the “Fold Act. (percent maximum fold activation)” value is listed as “A (Fold activation >200%)” and the EC1.5 was less than 1000 nM.

On to `O=C(Nc1ccc(CN2CCCC2)cc1)c1cccc2[nH]c(-c3ccc(Cl)cc3C(F)(F)F)nc12` [Compound 491], for which the “Fold Act. (percent maximum fold activation)” value is “A (Fold activation >200%)” and the EC1.5 is less than 1000 nM.

On to `O=C(Nc1ccc(OCC(O)CO)cc1)c1cccc2[nH]c(-c3ccccc3C(F)(F)F)nc12` (stereo not shown) [Compound 492], for which the “Fold Act. (percent maximum fold activation)” value is “A (Fold activation >200%)” and the EC1.5 is less than 1000 nM.

As for `O=C(Nc1ccc(OCC(O)CO)cc1)c1cccc2[nH]c(-c3ccc(Cl)cc3C(F)(F)F)nc12` (stereo not shown) [Compound 493], the “Fold Act. (percent maximum fold activation)” value is given as “A (Fold activation >200%)” and the EC1.5 is less than 1000 nM.

Regarding `O=C(Nc1ccc(OCC(O)CO)cc1)c1cccc2[nH]c(-c3cc(F)ccc3C(F)(F)F)nc12` (stereo not shown) [Compound 494], the “Fold Act. (percent maximum fold activation)” value is recorded as “A (Fold activation >200%)” and the EC1.5 is less than 1000 nM.

Take `Cc1cnc(NC(=O)c2cccc3[nH]c(-c4c(C(F)(F)F)nn(C)c4Cl)nc23)s1` [Compound 495]: the “Fold Act. (percent maximum fold activation)” value was “A (Fold activation >200%)” and the EC1.5 is less than 1000 nM.

Turning to `O=C(Nc1ccccn1)c1cccc2[nH]c(-c3cccc4c3OC(F)(F)O4)nc12` [Compound 496], the “Fold Act. (percent maximum fold activation)” value was “A (Fold activation >200%)” and the EC1.5 was less than 1000 nM.

On to `CCCN1CCCc2ccc(-c3nc4c(C(=O)Nc5cccnc5)cccc4[nH]3)cc21` [Compound 497], for which the “Fold Act. (percent maximum fold activation)” value is “A (Fold activation >200%)” and the EC1.5 lay in the range of 1000 to 25000 nM.

Take `CC1(C)Cc2cc(-c3nc4c(C(=O)Nc5ccccn5)cccc4[nH]3)ccc2O1` [Compound 498]: the “Fold Act. (percent maximum fold activation)” value is given as “B (Fold Activation <200%)” and the EC1.5 is 1000 to 25000 nM.

Regarding `CC1(C)Cc2cc(-c3nc4c(C(=O)Nc5cccnc5)cccc4[nH]3)ccc2O1` [Compound 499], the “Fold Act. (percent maximum fold activation)” value is “A (Fold activation >200%)” and the EC1.5 was 1000 to 25000 nM.

With `Cc1cnc(NC(=O)c2cccc3[nH]c(-c4ccc5c(c4)CC(C)(C)O5)nc23)s1` [Compound 500], the “Fold Act. (percent maximum fold activation)” value is “A (Fold activation >200%)” and the EC1.5 is less than 1000 nM.
